For one data set, the target named is T1, human β-PDGF receptor (Homo sapiens, UniProt P09619).
T1 construct: expressed in transfected cells; host or cells: Chinese hamster ovary cells (CHO)
Briefly: Inhibitory effect on phosphorylation of PDGF receptor. Format: cell-based. Conditions: CHO cells expressing human β-PDGF receptor. Here is the method: Test Example 1 Inhibitory Effect on Phosphorylation of PDGF Receptor
The test was carried out according to the method described in the literature [Dah-Shuhn et al., J. Biol. Chem., 266, 413-418 (1991)], using Chinese hamster ovary cells (CHO) wherein human β-PDGF receptor cDNA was introduced and expressed.

In US6472391B2, “Nitrogen-containing heterocyclic compounds” (Millennium Pharmaceuticals, Inc., priority 1996, dated 2002) one finds melting point and IC50 data, which are given here for 33 compounds.

pIC50: −log10 of the molar value.

T1 sequence (P09619 33-1106): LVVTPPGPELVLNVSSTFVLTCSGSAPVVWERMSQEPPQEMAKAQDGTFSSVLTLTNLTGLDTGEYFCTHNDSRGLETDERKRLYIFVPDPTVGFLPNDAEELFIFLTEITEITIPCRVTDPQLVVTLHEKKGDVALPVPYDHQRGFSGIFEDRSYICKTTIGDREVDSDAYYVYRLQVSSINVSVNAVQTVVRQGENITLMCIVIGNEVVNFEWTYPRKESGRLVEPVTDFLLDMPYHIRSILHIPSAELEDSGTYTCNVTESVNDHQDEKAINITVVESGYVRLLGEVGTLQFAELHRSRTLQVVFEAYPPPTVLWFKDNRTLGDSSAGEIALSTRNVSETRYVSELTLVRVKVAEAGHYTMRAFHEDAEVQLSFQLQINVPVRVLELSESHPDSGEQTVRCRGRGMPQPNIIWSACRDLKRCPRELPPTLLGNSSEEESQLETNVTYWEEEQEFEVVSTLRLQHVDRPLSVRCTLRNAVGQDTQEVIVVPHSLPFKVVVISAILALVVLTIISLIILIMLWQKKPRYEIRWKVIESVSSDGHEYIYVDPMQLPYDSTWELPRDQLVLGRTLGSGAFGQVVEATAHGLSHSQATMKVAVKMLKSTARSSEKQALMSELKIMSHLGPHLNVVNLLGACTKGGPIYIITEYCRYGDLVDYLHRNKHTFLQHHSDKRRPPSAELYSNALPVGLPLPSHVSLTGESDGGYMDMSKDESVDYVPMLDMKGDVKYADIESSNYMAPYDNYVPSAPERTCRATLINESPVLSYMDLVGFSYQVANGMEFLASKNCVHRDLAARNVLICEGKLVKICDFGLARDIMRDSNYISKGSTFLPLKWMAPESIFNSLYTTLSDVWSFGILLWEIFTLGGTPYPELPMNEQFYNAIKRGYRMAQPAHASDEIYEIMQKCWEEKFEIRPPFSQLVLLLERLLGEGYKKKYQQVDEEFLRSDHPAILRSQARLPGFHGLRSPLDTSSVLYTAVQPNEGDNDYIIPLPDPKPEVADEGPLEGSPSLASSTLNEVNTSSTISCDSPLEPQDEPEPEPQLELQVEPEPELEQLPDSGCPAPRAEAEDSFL

`COc1cc2ncnc(N3CCN(C(=S)Nc4ccc(CNC(=O)OC(C)(C)C)cc4)CC3)c2cc1OC` [Compound 228, N-[4-(N-tert-Butoxycarbonylaminomethyl)phenyl]-4-(6,7-dimethoxy-4-quinazolinyl)-1-piperazinethiocarboxamide]: the melting point was 123 to 126 °C. This compound also showed a pIC50 against human β-PDGF receptor of 6.54.

As for `CCOc1cc2ncnc(N3CCN(C(=O)Nc4ccc([N+](=O)[O-])cc4)CC3)c2cc1OCC` [Compound 105, 4-(6,7-Diethoxy-4-quinazolinyl)-N-(4-nitrophenyl)-1-piperazinecarboxamide], the melting point lay within 120 to 121 °C. On human β-PDGF receptor, this compound had a pIC50 of 6.36.

In turn, `COc1cc2ncnc(N3C[C@@H](C)N(C(=S)NCc4ccccc4)[C@@H](C)C3)c2cc1OC` [Compound 433, N-Benzyl-4-(6,7-dimethoxy-4-quinazolinyl)-(cis-2,6-dimethyl)-1-piperazinethiocarboxamide] yielded a melting point of 165 to 166 °C. Also, the pIC50 against human β-PDGF receptor is 6.42.

Compound `COc1cc2ncnc(N3CCN(C(=S)NCCCc4ccccc4)CC3)c2cc1OC` [Compound 135, 4-(6,7-Dimethoxy-4-quinazolinyl)-N-(3-phenylpropyl)-1-piperazinethiocarboxamide] showed a melting point of 147 to 148 °C. The compound also had a pIC50 against human β-PDGF receptor of 6.34.

Compound `Cc1ccc2ncnc(N3CCN(C(=O)Nc4ccc(Oc5ccccc5)cc4)CC3)c2c1` [Compound 292, 4-(6-Methyl-4-quinazolinyl)-N-(4-phenoxyphenyl)-1-piperazinecarboxamide] showed a melting point of 244 to 246 °C. In addition, the negative logarithm of the IC50 (pIC50) against human β-PDGF receptor is 6.12.

Compound `COc1cc2ncnc(N3CCN(C(=S)Nc4ccc(S(=O)(=O)N5CCCCC5)cc4)CC3)c2cc1OC` [Compound 254, 4-(6,7-Dimethoxy-4-quinazolinyl)-N-(4-piperidinosulfonylphenyl)-1-piperazinethiocarboxamide] had a melting point of 149 to 150 °C. Moreover, the pIC50 on human β-PDGF receptor is 6.34.

Consider `COc1cc2ncnc(N3CCN(C(=S)NCc4cccc(Cl)c4)CC3)c2cc1OC` [Compound 177, N-(3-Chlorobenzyl)-4-(6,7-dimethoxy-4-quinazolinyl)-1-piperazinethiocarboxamide], for which the melting point was 117 to 119 °C. Further, the pIC50 at human β-PDGF receptor is 6.11.

For the compound `COc1cc2ncnc(N3CCN(C(=S)NCCc4ccc(Cl)cc4)CC3)c2cc1OC` [Compound 180, N-[2-(4-Chlorophenyl)ethyl]-4-(6,7-dimethoxy-4-quinazolinyl)-1-piperazinethiocarboxamide], the melting point was 106 to 109 °C. The compound also showed a pIC50 against human β-PDGF receptor of 6.00.

`COc1cc2ncnc(N3CCN(C(=O)Nc4ccoc4)CC3)c2cc1OC` [Compound 255, 4-(6,7-Dimethoxy-4-quinazolinyl)-N-(3-furyl)-1-piperazinecarboxamide] gave a melting point of 213 to 215 °C. At human β-PDGF receptor, the pIC50 is 6.18.

Take `COc1cc2ncnc(N3CCN(C(=S)NCc4ccc(C#N)cc4)CC3)c2cc1OC` [Compound 240, N-(4-Cyanobenzyl)-4-(6,7-dimethoxy-4-quinazolinyl)-1-piperazinethiocarboxamide]: the melting point was 186 to 187 °C. On human β-PDGF receptor, this compound showed a negative-log IC50 (pIC50) of 6.30.

`COc1cc2ncnc(N3CCN(C(=S)NCc4cccnc4)CC3)c2cc1OC` [Compound 98, 4-(6,7-Dimethoxy-4-quinazolinyl)-N-(3-picolyl)-1-piperazinethiocarboxamide] gave a melting point of 104 to 106 °C. The compound also gave a pIC50 at human β-PDGF receptor of 6.66.

In turn, `O=C(Nc1ccc(Oc2ccccc2)cc1)N1CCN(c2ncnc3ccc(F)cc23)CC1` [Compound 297, 4-(6-Fluoro-4-quinazolinyl)-N-(4-phenoxyphenyl)-1-piperazinecarboxamide] showed a melting point of 186 to 187 °C. For the same compound, at human β-PDGF receptor, the pIC50 is 6.48.

Turning to `COc1cc2ncnc(N3CCN(C(=O)Nc4ccc(N=Nc5ccccc5)cc4)CC3)c2cc1OC` [Compound 229, 4-(6,7-Dimethoxy-4-quinazolinyl)-N-(4-phenylazophenyl)-1-piperazinecarboxamide], the melting point was in the range of 244 to 246 °C. For the same compound, at human β-PDGF receptor, the pIC50 was 6.51.

With `COc1cc2ncnc(N3CCN(C(=S)Nc4ccc(N(C)C)cc4)CC3)c2cc1OC` [Compound 71, 4-(6,7-Dimethoxy-4-quinazolinyl)-N-(4-dimethylaminophenyl)-1-piperazinethiocarboxamide], the melting point was in the range of 226 to 227 °C. The compound further showed a pIC50 against human β-PDGF receptor of 6.03.

In turn, `COc1cc2ncnc(N3CCN(C(=S)Nc4ccc(Oc5ccc([N+](=O)[O-])cc5)cc4)CC3)c2cc1OC` [Compound 62, 4-(6,7-Dimethoxy-4-quinazolinyl)-N-[4-(4-nitrophenoxy)phenyl]-1-piperazinethiocarboxamide] returned a melting point of 204 to 207 °C.

Take `COc1cc2ncnc(N3CCN(C(=S)Nc4ccc(Sc5ccc([N+](=O)[O-])cc5)cc4)CC3)c2cc1OC` [Compound 70, 4-(6,7-Dimethoxy-4-quinazolinyl)-N-[4-(4-nitrophenylthio)phenyl]-1-piperazinethiocarboxamide]: the melting point was in the range of 144 to 146 °C.

`COc1cc2ncnc(N3CCN(C(=O)NCc4cccnc4)CC3)c2cc1OC` [Compound 266, 4-(6,7-Dimethoxy-4-quinazolinyl)-N-(3-picolyl)-1-piperazinecarboxamide] returned a melting point of 188 to 189 °C.

`COc1cc2ncnc(N3CCN(C(=O)N(c4ccccc4)c4ccccc4)CC3)c2cc1OC` [Compound 116, 4-(6,7-Dimethoxy-4-quinazolinyl)-N,N-diphenyl-1-piperazinecarboxamide] gave a melting point of 196 to 197 °C.

`COc1cc2ncnc(N3CCN(C(=S)Nc4ccc(C(C)(C)C)cc4)CC3)c2cc1OC` [Compound 22, N-(4-tert-Butylphenyl)-4-(6,7-dimethoxy-4-quinazolinyl)-1-piperazinethiocarboxamide] returned a melting point of 221 to 224 °C.

`Cn1c(=O)n(C)c2cc3c(N4CCN(C(=O)Nc5ccc(Oc6ccccc6)cc5)CC4)ncnc3cc21` [Compound 121, 4-(1,3-Dihydro-1,3-dimethyl-2-oxo-2H-imidazo[4,5-g]quinazolin-8-yl)-N-(4-phenoxyphenyl)-1-piperazinecarboxamide]: the melting point was 250 to 255 °C.

`COc1cc2ncnc(N3CCN(C(=O)Nc4ccc(CN(C)C)cc4)CC3)c2cc1OC` [Compound 227, 4-(6,7-Dimethoxy-4-quinazolinyl)-N-[4-(N,N-dimethylaminomethyl)phenyl]-1-piperazinecarboxamide] gave a melting point of 213 to 215 °C.

As to `COc1cc2ncnc(N3CCN(C(=O)Nc4ccc5[nH]ccc5c4)CC3)c2cc1OC` [Compound 118, 4-(6,7-Dimethoxy-4-quinazolinyl)-N-(5-indolyl)-1-piperazinecarboxamide], the melting point was 209 to 210 °C.

Take `CCCCc1ccc(NC(=S)N2CCN(c3ncnc4cc(OC)c(OC)cc34)CC2)cc1` [Compound 21, N-(4-Butylphenyl)-4-(6,7-dimethoxy-4-quinazolinyl)-1-piperazinethiocarboxamide]: the melting point lay in the range of 171 to 173 °C.

Consider `COc1cc2ncnc(N3CCN(C(=O)NCc4ccc(C(F)(F)F)cc4)CC3)c2cc1OC` [Compound 160, 4-(6,7-Dimethoxy-4-quinazolinyl)-N-(4-trifluoromethylbenzyl)-1-piperazinecarboxamide], for which the melting point lay in the range of 195 to 197 °C.

Regarding `COc1ccc(CNC(=S)N2CCN(c3ncnc4cc(OC)c(OC)cc34)CC2)cc1` [Compound 199, 4-(6,7-Dimethoxy-4-quinazolinyl)-N-(4-methoxybenzyl)-1-piperazinethiocarboxamide], the melting point is 201 to 204 °C.

In the case of `COc1cc2ncnc(N3CCN(C(=S)NCc4ccccc4)CC3)c2cc1OS(C)(=O)=O` [Compound 351, N-Benzyl-4-(6-mesyloxy-7-methoxy-4-quinazolinyl)-1-piperazinethiocarboxamide], the melting point lay in the range of 76 to 80 °C.

Regarding `COc1ccc(NC(=S)N2CCN(c3ncnc4cc(OC)c(OC)cc34)CC2)cc1OC` [Compound 66, N-(3,4-Dimethoxyphenyl)-4-(6,7-dimethoxy-4-quinazolinyl)-1-piperazinethiocarboxamide], the melting point lay within 174 to 176 °C.

`COc1cc2ncnc(N3CCN(C(=S)Nc4cccnc4)CC3)c2cc1OC` [Compound 97, 4-(6,7-Dimethoxy-4-quinazolinyl)-N-(3-pyridyl)-1-piperazinethiocarboxamide] gave a melting point of 169 to 171 °C.

With `S=C(NCc1ccccc1)N1CCN(c2ccnc3ccccc23)CC1` [Compound 395, N-Benzyl-4-(4-quinolyl)-1-piperazinethiocarboxamide], the melting point is 75 to 79 °C.

Turning to `O=C(Nc1ccc(Oc2ccccc2)cc1)N1CCN(c2ncnc3cc(F)c(F)cc23)CC1` [Compound 329, 4-(6,7-Difluoro-4-quinazolinyl)-N-(4-phenoxyphenyl)-1-piperazinecarboxamide], the melting point is 177 to 178 °C.

In the case of `COc1cc2ncnc(N3CCN(C(=S)Nc4ccc5c(c4)OCCO5)CC3)c2cc1OC` [Compound 209, 4-(6,7-Dimethoxy-4-quinazolinyl)-N-(3,4-ethylenedioxyphenyl)-1-piperazinethiocarboxamide], the melting point lay within 165 to 166 °C.

Turning to `COc1cc2ncnc(N3CCN(C(=O)Nc4cccc(C(C)=O)c4)CC3)c2cc1OC` [Compound 86, N-(3-Acetylphenyl)-4-(6,7-dimethoxy-4-quinazolinyl)-1-piperazinecarboxamide], the melting point fell in the range of 241 to 245 °C.

With `COc1cc2ncnc(N3CCN(C(=S)Nc4ccc(Cc5ccncc5)cc4)CC3)c2cc1OC` [Compound 282, 4-(6,7-Dimethoxy-4-quinazolinyl)-N-[4-(4-picolyl)phenyl]-1-piperazinethiocarboxamide], the melting point lay in the range of 198 to 200 °C.
